Data set [1] in a line: Solubility at pH 6.5. The format is physicochemical. The note with it: buffer.
Data set [2] concerns the target Glutamate receptor ionotropic, NMDA 2B (Rattus norvegicus, UniProt Q00960). Kind of data set: Displacement of [3H]CP-101606 from NR2B in rat forebrain P2 membrane. The format is cell membranes, Brain. (Displacement assays read how much labelled ligand stays bound in the presence of the test substance.)
In data set [3] the target is Voltage-gated inwardly rectifying potassium channel KCNH2 (Homo sapiens, UniProt Q12809). Briefly: Displacement of [3H]dofetilide from human HERG expressed in HEK293 cells. The format is cell-based.
Voltage-gated inwardly rectifying potassium channel KCNH2, sequence (Q12809 whole entry): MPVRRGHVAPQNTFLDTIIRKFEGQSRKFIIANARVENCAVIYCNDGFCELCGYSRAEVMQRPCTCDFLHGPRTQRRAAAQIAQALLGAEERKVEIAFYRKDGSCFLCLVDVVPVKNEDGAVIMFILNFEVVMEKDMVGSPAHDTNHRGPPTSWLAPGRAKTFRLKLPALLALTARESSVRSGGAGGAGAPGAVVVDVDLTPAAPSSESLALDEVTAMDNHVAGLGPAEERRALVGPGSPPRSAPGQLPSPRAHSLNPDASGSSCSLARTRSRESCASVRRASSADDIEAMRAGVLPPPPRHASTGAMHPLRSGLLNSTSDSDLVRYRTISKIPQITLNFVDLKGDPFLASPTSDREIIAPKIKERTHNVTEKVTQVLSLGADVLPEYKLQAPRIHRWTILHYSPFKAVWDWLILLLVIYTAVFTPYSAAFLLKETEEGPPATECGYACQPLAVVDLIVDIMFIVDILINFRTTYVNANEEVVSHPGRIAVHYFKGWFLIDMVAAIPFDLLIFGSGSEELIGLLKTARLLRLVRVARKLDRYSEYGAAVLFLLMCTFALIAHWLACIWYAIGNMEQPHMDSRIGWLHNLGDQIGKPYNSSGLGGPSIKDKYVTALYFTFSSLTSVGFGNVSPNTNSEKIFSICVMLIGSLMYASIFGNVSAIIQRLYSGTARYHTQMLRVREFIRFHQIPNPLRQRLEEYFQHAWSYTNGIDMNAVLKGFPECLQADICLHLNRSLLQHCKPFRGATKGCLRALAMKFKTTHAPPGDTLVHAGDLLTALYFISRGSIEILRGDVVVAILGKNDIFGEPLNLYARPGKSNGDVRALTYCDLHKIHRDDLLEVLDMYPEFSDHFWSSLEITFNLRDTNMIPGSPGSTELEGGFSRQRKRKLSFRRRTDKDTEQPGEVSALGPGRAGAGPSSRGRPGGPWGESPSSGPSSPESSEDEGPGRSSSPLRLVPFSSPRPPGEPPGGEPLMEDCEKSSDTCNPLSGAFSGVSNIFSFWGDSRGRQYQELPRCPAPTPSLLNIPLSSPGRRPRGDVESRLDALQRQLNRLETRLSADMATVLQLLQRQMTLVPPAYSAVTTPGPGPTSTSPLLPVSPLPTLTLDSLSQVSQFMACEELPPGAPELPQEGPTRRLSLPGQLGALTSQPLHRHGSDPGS
Data set [4] in a line: Metabolic stability assessed Half life in human liver microsomes. The format is ADME, Microsome.
The target in a further data set is hERG (KCNH2) (Homo sapiens, UniProt Q12809). Kind of data set: Inhibition of HERG current at 30 uM.
hERG (KCNH2), sequence (Q12809 whole entry): as above
A further data set deals with Mus musculus. Kind of data set: Antiallodynic activity in po dosed mouse partial sciatic nerve ligation model. The format is functional.
The nature of data set [5]: Bioavailability in mouse. The format is ADME, organism-based. The note with it: in vivo.

≈ marks a conversion by molar mass, not a printed value.

Glutamate receptor ionotropic, NMDA 2B, sequence (Q00960 whole entry): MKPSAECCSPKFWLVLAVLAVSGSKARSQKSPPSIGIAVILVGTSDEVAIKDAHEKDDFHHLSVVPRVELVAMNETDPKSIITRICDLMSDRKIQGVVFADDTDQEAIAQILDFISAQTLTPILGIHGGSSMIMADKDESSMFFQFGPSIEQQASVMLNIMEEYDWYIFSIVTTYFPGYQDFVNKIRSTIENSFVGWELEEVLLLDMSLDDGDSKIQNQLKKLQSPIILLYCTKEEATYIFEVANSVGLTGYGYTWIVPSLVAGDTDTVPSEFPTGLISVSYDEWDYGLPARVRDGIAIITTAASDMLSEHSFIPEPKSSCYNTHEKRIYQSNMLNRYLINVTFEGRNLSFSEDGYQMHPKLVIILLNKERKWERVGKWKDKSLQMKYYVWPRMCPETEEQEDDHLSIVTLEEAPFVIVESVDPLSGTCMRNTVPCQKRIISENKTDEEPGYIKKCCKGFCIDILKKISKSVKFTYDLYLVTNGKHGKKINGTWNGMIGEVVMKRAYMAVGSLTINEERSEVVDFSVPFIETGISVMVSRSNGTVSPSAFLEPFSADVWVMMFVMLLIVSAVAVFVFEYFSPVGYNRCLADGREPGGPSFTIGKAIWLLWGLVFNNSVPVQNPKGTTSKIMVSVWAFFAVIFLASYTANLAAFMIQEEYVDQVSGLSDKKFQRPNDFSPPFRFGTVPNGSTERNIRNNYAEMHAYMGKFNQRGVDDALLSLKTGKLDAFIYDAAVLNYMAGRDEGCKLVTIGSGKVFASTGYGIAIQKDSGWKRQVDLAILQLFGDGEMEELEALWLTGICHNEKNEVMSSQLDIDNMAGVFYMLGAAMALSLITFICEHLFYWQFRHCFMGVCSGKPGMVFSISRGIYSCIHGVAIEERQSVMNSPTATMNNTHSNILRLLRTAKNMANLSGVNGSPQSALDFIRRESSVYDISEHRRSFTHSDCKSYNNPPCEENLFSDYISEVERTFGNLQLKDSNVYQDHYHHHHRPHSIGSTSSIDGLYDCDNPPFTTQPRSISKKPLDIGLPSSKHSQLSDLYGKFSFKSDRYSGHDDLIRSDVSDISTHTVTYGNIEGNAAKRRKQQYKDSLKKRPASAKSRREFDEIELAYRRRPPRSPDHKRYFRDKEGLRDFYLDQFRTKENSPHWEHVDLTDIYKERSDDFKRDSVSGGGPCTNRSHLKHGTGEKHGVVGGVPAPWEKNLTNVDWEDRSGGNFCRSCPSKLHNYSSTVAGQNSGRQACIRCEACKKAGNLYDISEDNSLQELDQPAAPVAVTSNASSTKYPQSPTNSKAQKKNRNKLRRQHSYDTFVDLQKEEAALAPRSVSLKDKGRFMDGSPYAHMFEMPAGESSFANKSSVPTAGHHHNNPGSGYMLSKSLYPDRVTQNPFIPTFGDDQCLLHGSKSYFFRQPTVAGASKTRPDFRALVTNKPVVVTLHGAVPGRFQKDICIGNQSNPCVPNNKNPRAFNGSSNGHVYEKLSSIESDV

For `O=C(CCc1ccccc1)N[C@H]1CC[C@H](c2ccc(O)cc2)CC1`, the solubility (commonly how much of the substance goes into solution per volume) in data set [1] was less than 5 µg/mL. In data set [2], the 50% inhibitory concentration (IC50) (as a rule, the concentration needed to halve the response being measured) was 30 nM.

On to `O=C(CCc1cccnc1)N[C@H]1CC[C@H](c2ccc(O)cc2)CC1`, for which the IC50 in data set [2] is more than 1000 nM.

Consider `O=C(CCc1ccccn1)N[C@H]1CC[C@H](c2ccc(O)cc2)CC1`, for which the values for the IC50 in data set [2] and in data set [3] were 856 nM and more than 30000 nM, respectively. As for `Cc1cnc(CCC(=O)N[C@H]2CC[C@H](c3ccc(O)cc3)CC2)s1`, the IC50 was 96 nM in data set [2] and more than 10000 nM in data set [3]. For the compound `O=C(N[C@H]1CC[C@H](c2ccc(O)cc2)CC1)C1Cc2ccccc2CN1` (stereo partly drawn), the solubility in data set [1] was found to be 18 µg/mL (≈ 51.4 µM). Further, the results for the half-maximal inhibitory concentration (IC50) in data set [2] and in data set [3] were more than 1000 nM and more than 30000 nM, respectively. In data set [2], `CN(C)C(Cc1ccccc1)C(=O)N[C@H]1CC[C@H](c2ccc(O)cc2)CC1` (stereo partly drawn) showed an IC50 of more than 1000 nM. The compound `O=C(CCc1ccccc1)N[C@H]1CC[C@](O)(c2ccc(O)cc2)CC1` returned a solubility in data set [1] of 20 µg/mL (≈ 58.9 µM). Moreover, the IC50 in data set [2] is 19 nM; in data set [3], more than 30000 nM. In data set [1], `Cc1cc([C@]2(O)CC[C@@H](NC(=O)CCc3ccccc3)CC2)ccc1O` displayed a solubility of less than 5 µg/mL. The IC50 in data set [2] is 189 nM; in data set [3] (hek293), more than 10000 nM. On to `Cc1cc([C@H]2CC[C@H](NC(=O)CCc3ccccc3)CC2)ccc1O`, for which the IC50 in data set [2] was more than 5000 nM. For the compound `Cc1cc(O)ccc1[C@H]1CC[C@H](NC(=O)CCc2ccccc2)CC1`, the 50% inhibitory concentration (IC50) in data set [2] stood at 722 nM. In the case of `O=C(CCc1ccccc1)N[C@H]1CC[C@](O)(c2ccc(O)c(F)c2)CC1`, in data set [1], the solubility came out at 17 µg/mL (≈ 47.6 µM). The IC50 in data set [2] is 13 nM.

Take `O=C(CCc1ccccc1)N[C@H]1CC[C@H](c2ccc(O)c(F)c2)CC1`: the results for the IC50 in data set [2] and in data set [3] (hek293) were 59 nM and more than 10000 nM, respectively. Turning to `O=C(CCc1ccccc1)N[C@H]1CC[C@](O)(c2ccc(O)cn2)CC1`, the half-life – broadly, the time needed for the level to fall by half in the phase considered – in data set [4] is more than 1 h. On hERG (KCNH2), the inhibition (commonly the percentage by which the read-out fell short of the control) at 30 µM came out at 9%. This compound also had an MED in the data set on Mus musculus of 10 mg/kg. The same compound yielded a solubility in data set [1] of 130 µg/mL (≈ 382 µM). Also, the bioavailability (in general, dose-corrected exposure relative to a reference, in per cent) in data set [5] worked out at 27%. The IC50 in data set [2] was 10 nM; in data set [3], more than 30000 nM. Regarding `O=C(CCc1ccccc1)N[C@H]1CC[C@](O)(c2c[nH]c3nc(=O)oc-3c2)CC1`, in data set [2], the concentration for half-maximal inhibition (IC50) amounted to 85 nM.

In data set [3], `O=C1CCc2cc([C@@H](O)CN3CCC(O)(c4cccc(F)c4)CC3)ccc2N1` showed a concentration for half-maximal inhibition (IC50) of 1100 nM. Consider `Cc1cc([C@]2(O)CC[C@@H](NC(=O)CCc3ccccc3)CC2)ncc1O`, for which the IC50 in data set [2] came out at 116 nM. That is a sub-micromolar value.

Take `CS(=O)(=O)Nc1ccc([C@]2(O)CC[C@@H](NC(=O)CCc3ccccc3)CC2)cn1`: in data set [2], the IC50 is more than 5000 nM.

For `Nc1ccc([C@]2(O)CC[C@@H](NC(=O)CCc3ccccc3)CC2)cn1`, in data set [2], the IC50 was more than 5000 nM.

In the case of `O=C(CCc1ccccc1)N[C@H]1CC[C@](O)(c2cn[nH]c2)CC1`, in data set [2], the IC50 is 2440 nM.

In data set [2], `O=C(CCc1ccccc1)N[C@H]1CC[C@](O)(c2ccc3nc[nH]c3c2)CC1` showed an IC50 of 4960 nM. For the compound `O=C1CC(Cc2ccccc2)CCN1CC(O)c1ccc(O)cc1` (stereo not drawn), in data set [3], the IC50 was more than 30000 nM. In turn, `Cn1c(CCC(=O)N[C@H]2CC[C@H](c3ccc(O)cc3)CC2)nc2ccccc21` yielded an IC50 in data set [2] of more than 1000 nM.

As for `Cc1cc(O)ccc1[C@]1(O)CC[C@@H](NC(=O)CCc2ccccc2)CC1`, the IC50 in data set [2] is 25 nM; in data set [3] (hek293), more than 10000 nM. Consider `O=C(CCc1ccccc1)N[C@H]1CC[C@](O)(c2c[nH]cn2)CC1`, for which the IC50 in data set [2] is more than 5000 nM. In data set [3], `C[C@@H]([C@@H](O)c1ccc(O)cc1)N1CCC(Cc2ccccc2)CC1` [(S)-IFENPRODIL] displayed an IC50 of less than 1000 nM.

These data come from ChEMBL document CHEMBL1137458, “Discovery of novel and orally active NR2B-selective N-methyl-D-aspartate (NMDA) antagonists, pyridinol derivatives with reduced HERG binding affinity” (Bioorg Med Chem Lett, 2007).
